Assay results reported in US20230115534A1 (ARKUDA THERAPEUTICS, priority 2019, published 2023).
Where a name gives a salt, the structure may show the parent alone.

Tested on: progranulin (PGRN)
Assay: progranulin induction cellular assay (PGRN assay), ELISA-based readout
Settings: PGRN assay as described: mouse primary microglia, primary cortical neurons and BV-2 cell lines; secreted mouse PGRN in medium by ELISA; cell type for Table B not specified
Description: Cellular Assays: To measure the efficacy of compounds, a progranulin induction cellular assay in mouse primary microglia (pMG), primary cortical neurons, and BV-2 cell lines is used. BV-2 cells are split the day before plating into a 96 well plate format at approximately 80%. Cells should be plated the day before and allowed for 1 hour attachment period and for 16 hour incubation. Levels of progranulin secreted into the cell culture medium or retained in the cell lysate can be quantified using an ELISA-based readout and measurement of secreted mouse PGRN in the medium was assessed by the methodology published by Ghidoni et al. 2012. Standard ELISA kits to measure PGRN are available from vendors such as Adipogen, R&D, and Biovendor.
Table B below presents the results of a PGRN assay as described above.

SMILES	EC50
CNC12CC(CC(=O)N3CCc4ccccc4C3c3ccc(F)cc3)(C1)C2 [Compound 4057, (S)-1-(1-(4-fluorophenyl)-3,4-dihydroisoquinolin-2(1H)-yl)-2-(3-(methylamino)bicyclo[1.1.1]pentan-1-yl)ethan-1-one]	1.75 µM
CN[C@H]1C[C@H](NC(=O)N2CCc3ccccc3[C@@H]2c2ccc(F)cc2)C1 [Compound 4043, (S)-1-(4-fluorophenyl)-N-(trans-3-(methylamino)cyclobutyl)-3,4-dihydroisoquinoline-2(1H)-carboxamide hydrochloride]	0.9 µM
N[C@H]1C[C@@H](NC(=O)N2CCc3ccccc3[C@@H]2c2ccc(F)cc2)C1 [Compound 4034, (S)—N-(cis-3-aminocyclobutyl)-1-(4-fluorophenyl)-3,4-dihydroisoquinoline-2(1H)-carboxamide]	0.37 µM
NC12CC(CC(=O)N3CCc4ccccc4C3c3ccc(F)cc3)(C1)C2 [Compound 4056, (S)-2-(3-aminobicyclo[1.1.1]pentan-1-yl)-1-(1-(4-fluorophenyl)-3,4-dihydroisoquinolin-2(1H)-yl)ethan-1-one]	1.44 µM
CNC12CC(CCC(=O)N3CCc4ccccc4C3c3ccc(F)cc3)(C1)C2 [Compound 4058, (S)-1-(1-(4-fluorophenyl)-3,4-dihydroisoquinolin-2(1H)-yl)-3-(3-(methylamino)bicyclo[1.1.1]pentan-1-yl)propan-1-one hydrochloride]	0.9 µM
CNC1(COC(=O)N2CCc3ccccc3[C@@H]2c2ccc(F)cc2)CC1 [Compound 4051, (1-(Methylamino)cyclopropyl)methyl (S)-1-(4-fluorophenyl)-3,4-dihydroisoquinoline-2(1H)-carboxylate hydrochloride]	0.46 µM
CNC12CC(NC(=O)N3CCc4ccccc4[C@@H]3c3ccc(F)cc3)(C1)C2 [Compound 4004, (S)-1-(4-fluorophenyl)-N-(3-(methylamino)bicyclo[1.1.1]pentan-1-yl)-3,4-dihydroisoquinoline-2(1H)-carboxamide]	0.225 µM
CS(=O)(=O)CCNC12CC(N(CCS(C)(=O)=O)C(=O)N3CCc4ccccc4[C@@H]3c3ccc(F)cc3)(C1)C2 [Compound 4008, (S)-1-(4-fluorophenyl)-N-(2-(methylsulfonyl)ethyl)-N-(3-((2-(methylsulfonyl)ethyl)amino)bicyclo[1.1.1]pentan-1-yl)-3,4-dihydroisoquinoline-2(1H)-carboxamide]	> 10 µM
CN(C)C12CC(NC(=O)N3CCc4ccccc4[C@@H]3c3ccc(F)cc3)(C1)C2 [Compound 4022, (S)—N-(3-(dimethylamino)bicyclo[1.1.1]pentan-1-yl)-1-(4-fluorophenyl)-3,4-dihydroisoquinoline-2(1H)-carboxamide]	5.33 µM
C[C@]1(NC(=O)N2CCc3ccccc3[C@@H]2c2ccc(F)cc2)C[C@H](N)C1 [Compound 4053, (S)—N-((trans)-3-amino-1-methylcyclobutyl)-1-(4-fluorophenyl)-3,4-dihydroisoquinoline-2(1H)-carboxamide]	0.031 µM
N[C@H]1C[C@H](NC(=O)N2CCc3ccccc3[C@@H]2c2ccc(F)cc2)C1 [Compound 4035, (S)—N-(trans-3-aminocyclobutyl)-1-(4-fluorophenyl)-3,4-dihydroisoquinoline-2(1H)-carboxamide hydrochloride]	0.49 µM
O=C(OC12CC(N3CCCC3=O)(C1)C2)N1CCc2ccccc2[C@@H]1c1ccc(F)cc1 [Compound 4025, 3-(2-Oxopyrrolidin-1-yl)bicyclo[1.1.1]pentan-1-yl (S)-1-(4-fluorophenyl)-3,4-dihydroisoquinoline-2(1H)-carboxylate]	> 10 µM
N[C@H]1C[C@@H](COC(=O)N2CCc3ccccc3[C@@H]2c2ccc(F)cc2)C1 [Compound 4046, (Cis-3-aminocyclobutyl)methyl (S)-1-(4-fluorophenyl)-3,4-dihydroisoquinoline-2(1H)-carboxylate]	0.92 µM
O=C(NC12CC(N3CCCC3=O)(C1)C2)N1CCc2ccccc2[C@@H]1c1ccc(F)cc1 [Compound 4024, (S)-1-(4-fluorophenyl)-N-(3-(2-oxopyrrolidin-1-yl)bicyclo[1.1.1]pentan-1-yl)-3,4-dihydroisoquinoline-2(1H)-carboxamide]	> 10 µM
N[C@H]1C[C@@H](CNC(=O)N2CCc3ccccc3[C@@H]2c2ccc(F)cc2)C1 [Compound 4028, Cis-(S)—N-((3-aminocyclobutyl)methyl)-1-(4-fluorophenyl)-3,4-dihydroisoquinoline-2(1H)-carboxamide]	2.32 µM
O=C(NC12CC(NCC(F)(F)F)(C1)C2)N1CCc2ccccc2[C@@H]1c1ccc(F)cc1 [Compound 4023, (S)-1-(4-fluorophenyl)-N-(3-((2,2,2-trifluoroethyl)amino)bicyclo[1.1.1]pentan-1-yl)-3,4-dihydroisoquinoline-2(1H)-carboxamide]	> 10 µM
N[C@@H]1CC[C@@H]1COC(=O)N1CCc2ccccc2[C@@H]1c1ccc(F)cc1 [Compound 4132, ((1S,2R)-2-aminocyclobutyl)methyl (S)-1-(4-fluorophenyl)-3,4-dihydroisoquinoline-2(1H)-carboxylate]	1.01 µM
CN[C@H]1C[C@@H](N(C)C(=O)N2CCc3ccccc3[C@@H]2c2ccc(F)cc2)C1 [Compound 4067]	0.913 µM
NC[C@H]1CC[C@@H]1OC(=O)N1CCc2ccccc2[C@@H]1c1ccc(F)cc1 [Compound 4064]	0.968 µM

Results, then the molecule that gave them:

EC50	SMILES
> 2.1 µM	NC[C@@H]1CC[C@H]1OC(=O)N1CCc2ccccc2[C@@H]1c1ccc(F)cc1 [Compound 4123]
0.28 µM	CN(C)[C@H]1C[C@H](CC(=O)N2CCc3ccccc3[C@@H]2c2ccc(F)cc2)C1 [Compound 4125]
0.13 µM	NC[C@]1(O)C[C@@H](C(=O)N2CCc3ccccc3[C@@H]2c2ccc(F)cc2)C1 (single isomer, unassigned) [Compound 4153]
0.359 µM	N[C@@H]1CC[C@@H]1CNC(=O)N1CCc2ccccc2[C@@H]1c1ccc(F)cc1 [Compound 4131]
> 10 µM	C#CCNC12CC(N(CC#C)C(=O)N3CCc4ccccc4[C@@H]3c3ccc(F)cc3)(C1)C2 [Compound 4006, (S)-1-(4-fluorophenyl)-N-(prop-2-yn-1-yl)-N-(3-(prop-2-yn-1-ylamino)bicyclo[1.1.1]pentan-1-yl)-3,4-dihydroisoquinoline-2(1H)-carboxamide]
0.74 µM	CCN[C@H]1C[C@H](OC(=O)N2CCc3ccccc3[C@@H]2c2ccc(F)cc2)C1 [Compound 4130]
0.201 µM	N[C@@H]1C[C@H](NC(=O)N2CCc3ccccc3[C@@H]2c2ccc(F)cc2)CC(F)(F)C1 (single isomer, unassigned) [Compound 4141]
0.208 µM	N[C@H]1C[C@H](CC(=O)N2CCc3ccccc3[C@@H]2c2ccc(F)cc2)C1 [Compound 4122]
5.16 µM	C#CCOCCNC12CC(NC(=O)N3CCc4ccccc4[C@@H]3c3ccc(F)cc3)(C1)C2 [Compound 4011, (S)-1-(4-fluorophenyl)-N-(3-((2-(prop-2-yn-1-yloxy)ethyl)amino)bicyclo[1.1.1]pentan-1-yl)-3,4-dihydroisoquinoline-2(1H)-carboxamide]
> 10 µM	CC(=O)NC12CC(OC(=O)N3CCc4ccccc4[C@@H]3c3ccc(F)cc3)(C1)C2 [Compound 4015, 3-Acetamidobicyclo[1.1.1]pentan-1-yl (S)-1-(4-fluorophenyl)-3,4-dihydroisoquinoline-2(1H)-carboxylate]
0.131 µM	N[C@H]1C[C@@H](OC(=O)N2CCc3ccccc3[C@@H]2c2ccc(F)cc2)C1 [Compound 4155, cis-3-aminocyclobutyl (S)-1-(4-fluorophenyl)-3,4-dihydroisoquinoline-2(1H)-carboxylate]
> 10 µM	C#CCNC12CC(NC(=O)N3CCc4ccccc4[C@@H]3c3ccc(F)cc3)(C1)C2 [Compound 4005, (S)-1-(4-fluorophenyl)-N-(3-(prop-2-yn-1-ylamino)bicyclo[1.1.1]pentan-1-yl)-3,4-dihydroisoquinoline-2(1H)-carboxamide 2,2,2-trifluoroacetate]
1.09 µM	CC(C)(OC(=O)N1CCc2ccccc2C1c1ccc(F)cc1)C12CC(N)(C1)C2 [Compound 4048, 2-(3-Aminobicyclo[1.1.1]pentan-1-yl)propan-2-yl (S)-1-(4-fluorophenyl)-3,4-dihydroisoquinoline-2(1H)-carboxylate]
0.059 µM	C[C@]1(N)C[C@H](NC(=O)N2CCc3ccccc3[C@@H]2c2ccc(F)cc2)C1 [Compound 4042, (S)—N-(trans-3-amino-3-methylcyclobutyl)-1-(4-fluorophenyl)-3,4-dihydroisoquinoline-2(1H)-carboxamide hydrochloride]
7.81 µM	O=C(NC12CC(N3CCCC3)(C1)C2)N1CCc2ccccc2[C@@H]1c1ccc(F)cc1 [Compound 4012, (S)-1-(4-fluorophenyl)-N-(3-(pyrrolidin-1-yl)bicyclo[1.1.1]pentan-1-yl)-3,4-dihydroisoquinoline-2(1H)-carboxamide]
1.21 µM	N[C@@H]1CC[C@H]1OC(=O)N1CCc2ccccc2[C@@H]1c1ccc(F)cc1 (single isomer, unassigned) [Compound 4039, hydrochloride]
0.334 µM	NC1CCC1COC(=O)N1CCc2ccccc2[C@@H]1c1ccc(F)cc1 (stereo in doubt) [Compound 4062, ((1R,2R)-2-aminocyclobutyl)methyl (S)-1-(4-fluorophenyl)-3,4-dihydroisoquinoline-2(1H)-carboxylate]
0.099 µM	N[C@H]1C[C@H](C(=O)N2CCc3ccccc3[C@@H]2c2ccc(F)cc2)C1 [Compound 4147, (trans-3-aminocyclobutyl)((S)-1-(4-fluorophenyl)-3,4-dihydroisoquinolin-2(1H)-yl)methanone]
